# Source: US5736557A, “N,N-bis (quinolin-4-yl)-diamine derivatives, their preparation and their use as antimalarials” (Hoffman-La Roche, Inc., priority 1994, dated 1998)
# Like-named read-outs stand apart in the source and are kept apart here.
# Tests used:
# [1] = test system: chloroquine-sensitive strains of the human-pathogenenic Plasmodium falciparum; assay: Growth inhibition of chloroquine-sensitive Plasmodium falciparum strains in vitro; format: cell-based
# Protocol: (§1) Test Method for the Determination of the Activity Against Plasmodium falciparum in vitro
# (§2) The preparations are tested on intraerythrocytary stages of Plasmodium falciparum from asynchronous cultures according to the method of Desjardin et al. (Desjardins, R. E. et al: Quantitative assessment of antimalarial activity in vitro by a semiautomated microdilution technique. Antimicrob. Agents Chemother. 16, 710-718, (1979)).
# (§3) The culture medium consists of RPMI 1640 with the addition of 25 mM HEPES, 25 mM NaHCO3, 100 μg/ml neomycin and […] (A^+). Human-A^+ erythrocytes are used as the Plasmodium falciparum host cells. The parasites are maintained at 37° C. in an atmosphere of 3% O2, 4% CO2, 9:3% N2 and 95% relative humidity.
# (§4) In order to determine the activity, the preparations are dissolved in dimethyl sulphoxide, pre-diluted in the culture medium to a suitable starting concentration and subsequently titrated-out on to microtitre plates in the 2nd stage over 6-7 steps. After the addition of the parasite culture (0.7% parasitemia in 2.5% erythrocyte suspension) the test plates are incubated under the conditions given above for 48 h-72 h. The parasite growth in the different preparation concentrations is determined using [G--^3 H]-hypoxanthin incorporation compared to untreated control cultures on the same test plates. The 50% growth inhibition (IC50) is calculated according to logit regression analysis from the resulting dosage-activity curve.
# (§5) The preparations are tested on at least one chloroquine-resistant and one chloroquine-sensitive Plasmodium falciparum strain. Additional sensitive and resistant strains are included for futher characterization.
# [2] = test system: chloroquine-resistant strains of the human-pathogenic Plasmodium falciparum; assay: Growth inhibition of chloroquine-resistant Plasmodium falciparum strains in vitro; format: cell-based; conditions: for IC50: Plasmodium falciparum; for Resistance index: ratio of average IC50 values for resistant strains and average values for sensitive strains
# Protocol: as §1, §2, §3, §4, §5
# Plasmodium berghei = assay: Activity against Plasmodium berghei in vivo in mice; parameters: species or system Plasmodium berghei (strain ANKA) in mice; conditions: for ED50: read-out: ED50 po
# Protocol: Test Method for the Determination of the Activity Against Plasmodium berghei in vivo
# The preparations are tested on mice infected with malaria pathogens (Plasmodium berghei). Male albino mice (IBM:MORO(SPF), FUELLINSDORF) weighing about 25 g are used as the test animals. They are kept in climatized rooms at 21°-22° C. in groups of 5 animals per cage. They receive ad libitum a diet feed with a low PABA content (NAFAG FUTTER .COPYRGT. No. 9009 PAB-45, PABA content 45 mg/kg) and drinking water. On the first day of the test (DO) the test animals are infected with Plasmodium berghei (strain ANKA). For this there is used heparinized blood of a donor mouse with about 30% parasitemia, which is diluted with physiological saline such that it contains 10^8 parasitized erythrocytes per ml. 0.2 ml of this suspension is injected intravenously (i.v.) into the mice to be treated and into the control mice. In untreated control animals the parasitemia normally reaches 30-40% on the third day after the infection (D+3) and the test animals die between days +5 and +7.
# The substances to be tested are dissolved or suspended in distilled water or in a mixture of 7% Tween 80, 3% alcohol (96%) and water. Usually, 0.25 ml of this solution or suspension is administered once subcutaneously and perorally to groups of 5 test animals. Treatment is effected 24 hours after the infection. 10 control animals are treated in the same manner with solvent or suspension medium per test.
# All substances are tested in a first test in a single dosage of 10 mg/kg. Only those substances which in this test (10 mg/kg) have shown a parasitaemia reduction of 90% are used for the titration. Suitable dilutions of the test substance can be used to obtain an accurate titration of the activity.
# 48 hours after the treatment (D+3) blood smears are prepared from all animals using blood from tail veins and are stained with giemsa. The average erythrocyte infection rate (parasitemiea in %) in the control groups as well as in the groups which have been treated with the test compounds is determined by counting under a microscope. The difference in the average values of the infection rates of control group (100%) and treated groups is calculated and expressed as a percentage reduction (GI%). The ED50 or ED90 is determined mathematically by means of the JMP programme (nonlinear fit). The ED50 (ED90) in mg/kg is that dose which after single administration reduces the average erythrocyte infection rate by 50% (90%) in comparison to the control group.
# [3] = NF54, strain NF54, chloroquine-sensitive, read-out: IC50 growth inhibition
# [4] = read-out: IC50 growth inhibition, strain K1, chloroquine-resistant
# [5] = po, percentage parasitemia reduction, single peroral dose 10 mg/kg, mice, read-out: GI % at 10 mg/kg po
# [6] = sc, percentage parasitemia reduction, single subcutaneous dose 10 mg/kg, mice, read-out: GI % at 10 mg/kg sc
# [7] = NF54, read-out: IC50 growth inhibition, strain NF54, chloroquine-sensitive
# [8] = read-out: IC50 growth inhibition, strain RFMEF3, chloroquine-sensitive
# [9] = read-out: IC50 growth inhibition, strain Ro73, chloroquine-sensitive
# [10] = read-out: IC50 growth inhibition, strain 7G8, chloroquine-resistant
# [11] = read-out: IC50 growth inhibition, strain Indo, chloroquine-resistant
# [12] = read-out: IC50 growth inhibition, strain ItG2F6, chloroquine-resistant
# [13] = read-out: IC50 growth inhibition, strain RFCF3, chloroquine-resistant
# [14] = read-out: IC50 growth inhibition, strain W2 Mef, chloroquine-resistant
# [15] = HB3, strain HB3, chloroquine-sensitive, read-out: IC50 growth inhibition
# [16] = strain FCH5C2, chloroquine-sensitive, read-out: IC50 growth inhibition
# [17] = strain RFMEF3, chloroquine-sensitive, read-out: IC50 growth inhibition
# [18] = strain Ro73, chloroquine-sensitive, read-out: IC50 growth inhibition
# [19] = read-out: IC50 growth inhibition, strain W2, chloroquine-resistant
# [20] = po, single peroral administration, mice
Structure (SMILES),"IC50 [1, 3]","IC50 [2, 4]",inhibition in vivo at 10 mg/kg (Plasmodium berghei; [5]),inhibition in vivo at 10 mg/kg (Plasmodium berghei; [6]),"IC50 [2, 10]","IC50 [2, 11]","IC50 [2, 12]","IC50 [2, 13]","IC50 [2, 14]",Resistance index [2],"IC50 [1, 15]","IC50 [1, 16]","IC50 [1, 17]","IC50 [1, 18]","IC50 [2, 19]",also measured
"Clc1ccc2c(N[C@H]3CCC[C@H](Nc4ccnc5cc(Cl)ccc45)C3)ccnc2c1 (relative stereo) [Example 7, ±-trans-N,N'-Bis-(7-chloroquinolin-4-yl)-cyclohexane-1,3-diamine]",10.7 ng/mL,10.5 ng/mL,97%,99%,–,–,–,–,–,–,–,–,–,–,–,–
"CCN(CC)CCCC(C)Nc1ccnc2cc(Cl)ccc12 (stereo not shown) [Chloroquine, reference compound]",–,114 ng/mL,–,–,81 ng/mL,52 ng/mL,68 ng/mL,130 ng/mL,79 ng/mL,8.7,–,–,–,–,–,"IC50 ([1]; HB3, read-out: IC50 growth inhibition, strain HB3, chloroquine-sensitive): 11.3 ng/mL; IC50 [1, 7]: 7.6 ng/mL; IC50 ([1]; read-out: IC50 growth inhibition, strain FCH5C2, chloroquine-sensitive): 12.2 ng/mL; IC50 [1, 8]: 14.2 ng/mL; IC50 [1, 9]: 8 ng/mL; ED50 (Plasmodium berghei; po): 2 mg/kg; inhibition in vivo at 10 mg/kg (Plasmodium berghei; po, read-out: GI % at 10 mg/kg po): 99.9%; inhibition in vivo at 10 mg/kg (Plasmodium berghei; sc, read-out: GI % at 10 mg/kg sc): 99.9%"
"Clc1ccc2c(NCc3ccccc3CNc3ccnc4cc(Cl)ccc34)ccnc2c1 [Example 1, (7-Chloroquinolin-4-yl)-[2-(7-chloroquinolin-4-yl-aminomethyl)-benzyl]-amin]",10.2 ng/mL,6.9 ng/mL,62%,97%,7 ng/mL,6.9 ng/mL,4.7 ng/mL,5.4 ng/mL,4.9 ng/mL,0.9,7.5 ng/mL,6.6 ng/mL,6.5 ng/mL,3.6 ng/mL,5.8 ng/mL,–
"Clc1ccc2c(NCc3cccc(CNc4ccnc5cc(Cl)ccc45)c3)ccnc2c1 [Example 2, (7-Chloroquinolin-4-yl)-[3-(7-chloroquinolin-4-yl-aminomethyl)-benzyl]-amine]",10.3 ng/mL,17 ng/mL,87%,99%,13.9 ng/mL,15.8 ng/mL,19 ng/mL,26.3 ng/mL,17 ng/mL,2.8,8.9 ng/mL,12.5 ng/mL,7.8 ng/mL,13.3 ng/mL,100 ng/mL,–
"Clc1ccc2c(NCc3ccc(CNc4ccnc5cc(Cl)ccc45)cc3)ccnc2c1 [Example 3, (7-Chloroquinolin-4-yl)-[4-(7-chloroquinolin-4-yl-aminomethyl)-benzyl]-amine]",9.6 ng/mL,9.1 ng/mL,99.9%,99.9%,6.8 ng/mL,2.9 ng/mL,7.9 ng/mL,5.7 ng/mL,9.7 ng/mL,0.7,4.6 ng/mL,12.7 ng/mL,12.5 ng/mL,7.4 ng/mL,5 ng/mL,ED50 (Plasmodium berghei; [20]): 2.5 mg/kg
"Clc1ccc2c(N[C@H]3CC[C@H](Nc4ccnc5cc(Cl)ccc45)CC3)ccnc2c1 [Example 4, ±-trans-N,N'-Bis-(7-chloroquinolin-4-yl)-cyclohexane-1,4-diamine]",7.2 ng/mL,11.6 ng/mL,73%,37%,2.8 ng/mL,6 ng/mL,5.3 ng/mL,9.5 ng/mL,7 ng/mL,2.1,3.3 ng/mL,3.6 ng/mL,3.3 ng/mL,1.6 ng/mL,13.1 ng/mL,–
"Clc1ccc2c(N[C@H]3CC[C@@H](Nc4ccnc5cc(Cl)ccc45)CC3)ccnc2c1 [Example 5, cis-N,N'-Bis-(7-chloroquinolin-4-yl)-cyclohexane-1,4-diamine]",2.6 ng/mL,7.7 ng/mL,98%,99.9%,9 ng/mL,4.4 ng/mL,6.8 ng/mL,5.1 ng/mL,6.5 ng/mL,2.1,3.2 ng/mL,3.9 ng/mL,3.4 ng/mL,2.3 ng/mL,4.8 ng/mL,ED50 (Plasmodium berghei; [20]): 1.5 mg/kg
"Clc1ccc2c(N[C@@H]3CCC[C@H](Nc4ccnc5cc(Cl)ccc45)C3)ccnc2c1 [Example 6, cis-N,N'-Bis-(7-chloroquinolin-4-yl)-cyclohexane-1,3-diamine]",–,4.4 ng/mL,98%,99.9%,3.8 ng/mL,3 ng/mL,4.1 ng/mL,4.2 ng/mL,7.6 ng/mL,1.0,5.2 ng/mL,6.4 ng/mL,4.8 ng/mL,–,4 ng/mL,"IC50 [1, 7]: 3.8 ng/mL; IC50 [1, 9]: 3 ng/mL; ED50 (Plasmodium berghei; [20]): 1.7 mg/kg"
"C[C@H]1[C@@H](Nc2ccnc3cc(Cl)ccc23)CCC[C@H]1Nc1ccnc2cc(Cl)ccc12 [Example 8, cis,cis-N,N'-Bis-(7-chloroquinolin-4-yl)-2-methyl-cyclohexane-1,3-diamine]",7.7 ng/mL,8.8 ng/mL,66%,67%,9.4 ng/mL,6.4 ng/mL,6.4 ng/mL,4.6 ng/mL,9.1 ng/mL,1.3,6.1 ng/mL,6.1 ng/mL,6.3 ng/mL,1.6 ng/mL,5.6 ng/mL,–
"Clc1ccc2c(NC3CCC(CC4CCC(Nc5ccnc6cc(Cl)ccc56)CC4)CC3)ccnc2c1 (stereo not shown) [Example 12, N,N'-Bis-(7-chloroquinolin-4-yl)-dicyclohexylmethane-4,4'-diamine]",11.6 ng/mL,13 ng/mL,–,–,17.1 ng/mL,13.7 ng/mL,13.3 ng/mL,7.2 ng/mL,21.6 ng/mL,0.9,26.3 ng/mL,19.4 ng/mL,–,17.8 ng/mL,25 ng/mL,"IC50 [1, 8]: 13.7 ng/mL"
"Clc1ccc2c(NC/C=C/CNc3ccnc4cc(Cl)ccc34)ccnc2c1 [Example 13, N,N'-Bis-(7-chloroquinolin-4-yl)-2-butene-1,4-diamine]",30.8 ng/mL,18.1 ng/mL,–,–,–,–,–,–,–,–,–,–,–,–,–,–
